# Like-named read-outs stand apart in the source and are kept apart here.
# Key:
# [1] = tested on: Liver cancer line SK-HEP-1 cells; assay: CTG (CellTiter-Glo) cell viability assay, 6×6 combo matrix, 72 h, SK-Hep-1; details: Homo sapiens;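 also: luminescent signal read after 72 h compound exposure at 37 °C under 5% CO2, with medium-only wells serving as blank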
# Procedure: (§1) To measure the cell inhibition effect of compounds and synergy effect of test articles on ten (10) cell lines using standard CTG assay.
# (§2) 7) Using complete cell medium, adjust the volume of the suspension to achieve a cell concentration.
# (§3) b. A549, T47D, SK-OV-3, MKN45, SK-Hep-1, HT-29, Capan-1, 786-O and LNCaP cell line, for compounds and vehicle groups, the seeding density of cell lines is 3000 cells/80 µL per well. For blank groups, add 100 µL medium. For PBS groups, add 100 µL PBS.
# (§4) 8) Incubate the U87MG, A549, T47D, SK-OV-3, MKN45, SK-Hep-1, HT-29, Capan-1, 786-O and LNCaP cells overnight at 37° C./5% CO2.
# (§5) Solid compound of cis-platinum was solubilized in PBS to a stock solution of 3.333 mM.
# (§6) Final volume is 100 µL per well at this point.
# (§7) 5) Incubate the plates at 37° C./5% CO2 for 72 hours.
# (§8) 1) Incubate the plates at room temperature and away from light for 30 minutes.
# (§9) 3) Add 100 µL /well of CellTiter-Glo® Reagent in each well. Avoid light.
# (§10) 4) Mix contents for 2 minutes on an orbital shaker.
# (§11) 5) Incubate plate at room temperature for 10 minutes to stabilize the luminescent signal.
# 6) Read plates in Envision.
# [2] = tested on: kidney cancer line 786-O cells; assay: CTG (CellTiter-Glo) cell viability assay, 6×6 combo matrix, 72 h, 786-O; details: Homo sapiens;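 also: luminescence read-out after adding CellTiter-Glo reagent, with cells incubated at 37 °C under 5% CO2 during compound exposure, part of a ten cell line synergy study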
# Procedure: as §1, §2, §3, §4, §5, §6, §7, §8, §9, §10, §11
# 6) Read plates in Envision.
# [3] = tested on: prostate adenocarcinoma line LNCap cells; assay: CTG (CellTiter-Glo) cell viability assay, 6×6 combo matrix, 72 h, LNCaP; details: Homo sapiens, LNCaP;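 also: luminescence signal read after adding CellTiter-Glo reagent, with cells exposed to compounds for 72 h at 37 °C under 5% CO2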
# Procedure: as §1, §2, §3, §4, §5, §6, §7, §8, §9, §10, §11
# 6) Read plates in Envision.
# [4] = tested on: breast cancer line T47D cells; assay: CTG (CellTiter-Glo) cell viability assay, 6×6 combo matrix, 72 h, T47D; details: Homo sapiens;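 also: luminescence read-out after 72 h at 37 °C under 5% CO2, with medium-only wells as blanks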
# Procedure: as §1, §2, §3, §4, §5, §6, §7, §8, §9, §10, §11
# 6) Read plates in Envision.
# [5] = tested on: glioblastoma line U87MG cells; assay: CTG (CellTiter-Glo) cell viability assay, 6×6 combo matrix, 72 h, U87MG; details: Homo sapiens, U-87 MG;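 also: U87MG cells seeded at 2000 per well, exposed 72 h, viability read by CellTiter-Glo luminescence, inhibition expressed relative to vehicle-treated wells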
# Procedure: as §1, §2
# U87MG cell lines, for compounds and vehicle groups, the seeding density of cell lines is 2000 cells/80 µL per well. For blank groups, add 100 µL medium. For PBS groups, add 100 µL PBS.
# as §4, §5, §6, §7, §8, §9, §10, §11
# 6) Read plates in Envision.
# [6] = read-out: Relatively Cell inhibition of vehicle control(%), myricetin 0.8 µM only (cisplatin plate)
# [7] = read-out: Relatively Cell inhibition of vehicle control(%), myricetin 0.8 µM only (doxorubicin plate)
# [8] = read-out: Relatively Cell inhibition of vehicle control(%), myricetin 0.8 µM only (taxol plate)
# [9] = read-out: Relatively Cell inhibition of vehicle control(%), myricetin 0.8 µM only (topotecan plate)
# [10] = read-out: Relatively Cell inhibition of vehicle control(%), myricetin 4 µM only (cisplatin plate)
# [11] = read-out: Relatively Cell inhibition of vehicle control(%), myricetin 4 µM only (doxorubicin plate)
# [12] = read-out: Relatively Cell inhibition of vehicle control(%), myricetin 4 µM only (taxol plate)
# [13] = read-out: Relatively Cell inhibition of vehicle control(%), myricetin 4 µM only (topotecan plate)
# [14] = read-out: Relatively Cell inhibition of vehicle control(%), myricetin 20 µM only (cisplatin plate)
# [15] = read-out: Relatively Cell inhibition of vehicle control(%), myricetin 20 µM only (doxorubicin plate)
# [16] = read-out: Relatively Cell inhibition of vehicle control(%), myricetin 20 µM only (taxol plate)
# [17] = read-out: Relatively Cell inhibition of vehicle control(%), myricetin 20 µM only (topotecan plate)
# [18] = read-out: Relatively Cell inhibition of vehicle control(%), myricetin 100 µM only (cisplatin plate)
# [19] = read-out: Relatively Cell inhibition of vehicle control(%), myricetin 100 µM only (doxorubicin plate)
# [20] = read-out: Relatively Cell inhibition of vehicle control(%), myricetin 100 µM only (taxol plate)
# [21] = read-out: Relatively Cell inhibition of vehicle control(%), myricetin 100 µM only (topotecan plate)
smiles,measurement,setting,value
O=c1c(O)c(-c2cc(O)c(O)c(O)c2)oc2cc(O)cc(O)c12 [myricetin],inhibition at 100 µM,"[1]; SK-HEP1, read-out: Relatively Cell inhibition of vehicle control, myricetin 100 µM only (cisplatin table)",99.6%
same,inhibition at 100 µM,"[1]; SK-HEP1, read-out: Relatively Cell inhibition of vehicle control, myricetin 100 µM only (doxorubicin table)",99.4%
same,inhibition at 100 µM,"[1]; SK-HEP1, read-out: Relatively Cell inhibition of vehicle control, myricetin 100 µM only (taxol table)",99.6%
same,inhibition at 100 µM,"[1]; SK-HEP1, read-out: Relatively Cell inhibition of vehicle control, myricetin 100 µM only (topotecan table)",99.4%
same,inhibition at 0.8 µM,"[2]; 786-0, read-out: Relatively Cell inhibition of vehicle control, myricetin 0.8 µM only (cisplatin table)",0.79%
same,inhibition at 0.8 µM,"[2]; 786-0, read-out: Relatively Cell inhibition of vehicle control, myricetin 0.8 µM only (doxorubicin table)",0.86%
same,inhibition at 0.8 µM,"[2]; 786-0, read-out: Relatively Cell inhibition of vehicle control, myricetin 0.8 µM only (taxol table)",0.33%
same,inhibition at 0.8 µM,"[2]; 786-0, read-out: Relatively Cell inhibition of vehicle control, myricetin 0.8 µM only (topotecan table)",0.12%
same,inhibition at 4 µM,"[2]; 786-0, read-out: Relatively Cell inhibition of vehicle control, myricetin 4 µM only (cisplatin table)",2.54%
same,inhibition at 4 µM,"[2]; 786-0, read-out: Relatively Cell inhibition of vehicle control, myricetin 4 µM only (doxorubicin table)",4.47%
same,inhibition at 4 µM,"[2]; 786-0, read-out: Relatively Cell inhibition of vehicle control, myricetin 4 µM only (taxol table)",2.6%
same,inhibition at 4 µM,"[2]; 786-0, read-out: Relatively Cell inhibition of vehicle control, myricetin 4 µM only (topotecan table)",4.03%
same,inhibition at 20 µM,"[2]; 786-0, read-out: Relatively Cell inhibition of vehicle control, myricetin 20 µM only (cisplatin table)",10.8%
same,inhibition at 20 µM,"[2]; 786-0, read-out: Relatively Cell inhibition of vehicle control, myricetin 20 µM only (doxorubicin table)",11.2%
same,inhibition at 20 µM,"[2]; 786-0, read-out: Relatively Cell inhibition of vehicle control, myricetin 20 µM only (taxol table)",9.84%
same,inhibition at 20 µM,"[2]; 786-0, read-out: Relatively Cell inhibition of vehicle control, myricetin 20 µM only (topotecan table)",10.4%
same,inhibition at 100 µM,"[2]; 786-0, read-out: Relatively Cell inhibition of vehicle control, myricetin 100 µM only (cisplatin table)",43.4%
same,inhibition at 100 µM,"[2]; 786-0, read-out: Relatively Cell inhibition of vehicle control, myricetin 100 µM only (doxorubicin table)",43.1%
same,inhibition at 100 µM,"[2]; 786-0, read-out: Relatively Cell inhibition of vehicle control, myricetin 100 µM only (taxol table)",42%
same,inhibition at 100 µM,"[2]; 786-0, read-out: Relatively Cell inhibition of vehicle control, myricetin 100 µM only (topotecan table)",44.8%
same,inhibition at 0.8 µM,[3]; [6],-1.65%
same,inhibition at 0.8 µM,[3]; [7],-0.32%
same,inhibition at 0.8 µM,[3]; [8],-2.06%
same,inhibition at 0.8 µM,[3]; [9],-2.79%
same,inhibition at 4 µM,[3]; [10],0.26%
same,inhibition at 4 µM,[3]; [11],-3.26%
same,inhibition at 4 µM,[3]; [12],-5.5%
same,inhibition at 4 µM,[3]; [13],8.5%
same,inhibition at 20 µM,[3]; [14],-3.11%
same,inhibition at 20 µM,[3]; [15],-2.66%
same,inhibition at 20 µM,[3]; [16],4.8%
same,inhibition at 20 µM,[3]; [17],6.5%
same,inhibition at 100 µM,[3]; [18],27.2%
same,inhibition at 100 µM,[3]; [19],21.1%
same,inhibition at 100 µM,[3]; [20],31.4%
same,inhibition at 100 µM,[3]; [21],30.1%
same,inhibition at 0.8 µM,"[4]; read-out: Relatively Cell inhibition of vehicle control(%), T47D, 0.8 µM myricetin only (cisplatin 0)",-1.72%
same,inhibition at 0.8 µM,"[4]; read-out: Relatively Cell inhibition of vehicle control(%), T47D, 0.8 µM myricetin only (doxorubicin 0)",8.68%
same,inhibition at 0.8 µM,"[4]; read-out: Relatively Cell inhibition of vehicle control(%), T47D, 0.8 µM myricetin only (taxol 0)",6.31%
same,inhibition at 0.8 µM,"[4]; read-out: Relatively Cell inhibition of vehicle control(%), T47D, 0.8 µM myricetin only (topotecan 0)",1.93%
same,inhibition at 4 µM,"[4]; read-out: Relatively Cell inhibition of vehicle control(%), T47D, 4 µM myricetin only (cisplatin 0)",-0.88%
same,inhibition at 4 µM,"[4]; read-out: Relatively Cell inhibition of vehicle control(%), T47D, 4 µM myricetin only (doxorubicin 0)",1.01%
same,inhibition at 4 µM,"[4]; read-out: Relatively Cell inhibition of vehicle control(%), T47D, 4 µM myricetin only (taxol 0)",0.2%
same,inhibition at 4 µM,"[4]; read-out: Relatively Cell inhibition of vehicle control(%), T47D, 4 µM myricetin only (topotecan 0)",-2.25%
same,inhibition at 20 µM,"[4]; read-out: Relatively Cell inhibition of vehicle control(%), T47D, 20 µM myricetin only (cisplatin 0)",2.08%
same,inhibition at 20 µM,"[4]; read-out: Relatively Cell inhibition of vehicle control(%), T47D, 20 µM myricetin only (doxorubicin 0)",8.28%
same,inhibition at 20 µM,"[4]; read-out: Relatively Cell inhibition of vehicle control(%), T47D, 20 µM myricetin only (taxol 0)",5.67%
same,inhibition at 20 µM,"[4]; read-out: Relatively Cell inhibition of vehicle control(%), T47D, 20 µM myricetin only (topotecan 0)",3.54%
same,inhibition at 100 µM,"[4]; read-out: Relatively Cell inhibition of vehicle control(%), T47D, 100 µM myricetin only (cisplatin 0)",25.4%
same,inhibition at 100 µM,"[4]; read-out: Relatively Cell inhibition of vehicle control(%), T47D, 100 µM myricetin only (doxorubicin 0)",24.5%
same,inhibition at 100 µM,"[4]; read-out: Relatively Cell inhibition of vehicle control(%), T47D, 100 µM myricetin only (taxol 0)",30%
same,inhibition at 100 µM,"[4]; read-out: Relatively Cell inhibition of vehicle control(%), T47D, 100 µM myricetin only (topotecan 0)",22.2%
same,inhibition at 0.8 µM,[5]; [6],1.25%
same,inhibition at 0.8 µM,[5]; [7],-1.19%
same,inhibition at 0.8 µM,[5]; [8],2.29%
same,inhibition at 0.8 µM,[5]; [9],3.94%
same,inhibition at 4 µM,[5]; [10],-0.71%
same,inhibition at 4 µM,[5]; [11],1.02%
same,inhibition at 4 µM,[5]; [12],0.66%
same,inhibition at 4 µM,[5]; [13],3.52%
same,inhibition at 20 µM,[5]; [14],9.21%
same,inhibition at 20 µM,[5]; [15],7.98%
same,inhibition at 20 µM,[5]; [16],11.1%
same,inhibition at 20 µM,[5]; [17],8.45%
same,inhibition at 100 µM,[5]; [18],46.8%
same,inhibition at 100 µM,[5]; [19],32.3%
same,inhibition at 100 µM,[5]; [20],45.7%
same,inhibition at 100 µM,[5]; [21],43.4%
